Source: patent publication US20120171133A1, “Modulation of Dynein in Skin” (AVON PRODUCTS, INC., priority 2010, published 2012)

Key:
[1] = tested on: mRNA for the heavy chain DYNC1H1 of cytoplasmic dynein; experiment: Dynein modulation assay (Panomics Quantigene multiplex, branched DNA) in fibroblasts; assay type: cell-based, human; conditions: fibroblasts (F), 24 hours
Procedure: (§1) Normal human dermal fibroblasts or keratinocytes were cultured in 96-well tissue culture treated plates, containing appropriate culture medium. Stock solution of actives were made in an appropriate vehicle (water/Ethanol/Propylene glycol). Cells were treated with test material or respective vehicle control diluted in growth medium for 24 hours in a humidified 37° C. Incubator with 10% CO2. After incubation, growth medium from each plate was removed and 100 μL of lysis buffer was added to the wells and placed in 37° C. Incubator with 10% CO2 for 30 minutes. At the end of incubation, the cells are collected in freezer plates and placed in −80° C. freezer, until analysis. Changes in mRNA for Dynein after treatment were analyzed using Panomics Quantigene multiplex assay that employs a branched DNA technology, following manufacturer's instructions (Affymetrix, Calif.). Percent increase (up-regulation) or decrease (down-regulation) in mRNA for the heavy chain DYNC1H1 of cytoplasmic dynein was calculated by comparing the test results to the control. The percent up-regulation or down-regulation is converted to a scaled score as shown below in Table 3.

[2] = tested on: mRNA for the heavy chain DYNC1H1 of cytoplasmic dynein; experiment: Dynein modulation assay (Panomics Quantigene multiplex, branched DNA) in keratinocytes; assay type: cell-based, human; conditions: for Effect (down-regulation scale) / Effect (up-regulation scale): keratinocytes (K), 24 hours
Procedure: as §1

`CCC=CCC=CCCO` [3,6-Nonadienol] was tested, and the “Effect (down-regulation scale)” value ([1]; Conc. 0.01%) was “− (21-40)”.
For `O=C(O)c1cc(Cl)ccc1O` [5-Chlorosalicylic acid], the “Effect (down-regulation scale)” value ([2]; Conc. 0.1%) was “−− (41-60)” and the “reduction of mRNA for the heavy chain DYNC1H1 of cytoplasmic dynein” value ([2]; keratinocytes, p=0.02) was 45.03%.
`CC1=C(CC/C(C)=C/COC[C@@H](O)[C@@H](O)[C@H](O)[C@H](O)CO)C(C)(C)C(C)CC1` (stereo partly drawn) [Chalmicrin, 1-O—[(E)-3-Methyl-5-(2,5,6,6-tetramethyl-1-cyclohexen-1-yl)-2-pentenyl]-D-mannitol] was tested, and the “Effect (up-regulation scale)” value ([2]; Conc. 0.0001%) was “++++ (>81)”.
`CC(C)CN(Cc1ccc(OS(C)(=O)=O)cc1)S(=O)(=O)c1ccccc1` [Compound 1] was tested, and the “Effect (up-regulation scale)” value ([1]; Conc. 0.00005%) was “++ (41-60)”.
For `CCCCCCCC(=O)Nc1ccc(N2CCN(C(=O)CC(C)(C)C)CC2)cc1` [Compound 2], the “Effect (up-regulation scale)” value ([2]; Conc. 0.0005%) was “++ (41-60)”.
For `CCCCc1ccc(C(=O)Nc2cccc(C3NC(=S)N(C)C(C)=C3C(=O)OCCOC)c2)cc1` (stereo not shown) [Compound 3], the “Effect (up-regulation scale)” value ([1]; Conc. 0.00005%) was “++ (41-60)”.
With `CCOCCCNC(=O)c1coc(CN(CCCOCC)C(=O)Nc2ccccc2C)n1` [Compound 4] the “Effect (up-regulation scale)” value ([1]; Conc. 0.00005%) was “++ (41-60)”.
With `CCOc1ccc(C(=O)CC(Sc2ccc(Cl)cc2)C(=O)O)cc1` (stereo not shown) [Compound 5] the “Effect (up-regulation scale)” value ([1]; Conc. 0.00001%) was “++ (41-60)”.
With `CCOCCCNC(=O)c1coc(CN(CCCOCC)C(=O)c2cccc(Br)c2)n1` [Compound 6] the “Effect (down-regulation scale)” value ([2]; Conc. 0.0005%) was “− (21-40)”.
For `CCCCC(CC)C(=O)Nc1ccc(N2CCN(C(=O)C3CCCCC3)CC2)cc1` (stereo not shown) [Compound 7], the “Effect (down-regulation scale)” value ([2]; Conc. 0.00005%) was “− (21-40)”.
`CCc1ccccc1NC(=O)N(Cc1ccc(OS(C)(=O)=O)cc1)CC(C)C` [Compound 8] was tested, and the “Effect (down-regulation scale)” value ([1]; Conc. 0.0005%) was “− (21-40)”.
With `CC/C=C\CCCCCO` [cis-6-Nonenol] the “Effect (down-regulation scale)” value ([2]; Conc. 0.0001%) was “− (21-40)”.
